Experimental data published in PubChem BioAssay AID179 (DTP/NCI, 2004).
Activity calls are given as the source filed them.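 Rule for the calls: active = compounds giving half or more protection of infected cells from virus-caused growth loss, again on retest; inactive = the rest.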 Where a SMILES comes first, the peptide text is derived from it. [ ]: non-standard residue; d: D form. The star is where a group is joined. ξ: configuration not given here. ξF = NC(Cc1ccccc1)C(=O)O; Cbz = O=C(OCc1ccccc1)*; Aib = CC(C)(N)C(=O)O; NHNH2 = NN*

Tested on: CEM cells HIV-1 protection, formazan growth assay
Test: NCI AIDS Antiviral Assay
Settings: for IC50: measured here: growth of uninfected CEM cells
Method in brief: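 Category rules: moderately active means at least 50% protection on retest, and confirmed active means 100% protection reproducibly. The underlying data came from a formazan growth assay in HIV-1-infected CEM cells.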

| SMILES | EC50 [µM] | IC50 [µM] | outcome |
| --- | --- | --- | --- |
| Clc1ccc(-c2nn3c(C45CC6CC(CC(C6)C4)C5)nnc3s2)cc1 | > 200 | > 200 |  |
| CCCCCCCCCCCCCCCCOCC(Cl)CP(=O)(O)OP(=O)(O)OCC1OC(n2cnc3c(N)ncnc32)C(O)C1O (centres undefined) | > 100 | > 100 |  |
| CC(C)CCC[C@@H](C)[C@H]1CC[C@H]2[C@@H]3CC=C4CC(OCCCCN(O)CCCSC5OC(CO)C(O)C(O)C5O)CC[C@]4(C)[C@H]3CC[C@]12C (some centres undefined) | > 200 | 35.5 |  |
| CC1CC2(C)ON=C(c3ccccc3)N2c2ccccc2S1 (centres undefined) |  |  | inactive |
| CCCCC1Sc2cc(OC)cc(N)c2NC1=O (centres undefined) | > 200 | 158 |  |
| N#Cc1nc(-c2cccs2)oc1N | > 200 | > 200 |  |
| NC(=O)C12CC3CC(CC(Br)(C3)C1)C2 | > 977 | 891 |  |
| CC1=C(C)SC(=C2Sc3nc(O)[nH]c(=O)c3S2)S1 | > 200 | 145 |  |
| Nc1cc(N)[nH]c(=S)n1 |  |  | inactive |
| CC1Oc2c3c(cc(O)c2C(=O)[C@@H]1C)OC(C)(C)CC3 (some centres undefined) | > 200 | 50.1 |  |
| N#Cc1c(N)nc(Nc2cccc3ccccc23)c(C#N)c1C#N |  |  | inactive |
| c1ccc2c(c1)NC1=C(CSCC1)c1nncn1-2 | > 200 | > 200 |  |
| NCCCNCCSSCCNCCCN | > 200 | 10.5 |  |
| Cc1ccnc(NC(=O)Nc2cc(F)ccc2F)c1 | > 200 | > 200 |  |
| CN1NC(C2NN(C)C(=O)N(C)N2)NN(C)C1=O | > 977 | 33.1 |  |
| CCOC(=O)C1CCc2c1c(C#N)c1[nH]c3ccccc3n1c2=O (centres undefined) | > 234 | > 234 |  |
| CC(C)(NC(=O)OCc1ccccc1)C(=O)NC(Cc1ccccc1)C(=O)NN (centres undefined) (Cbz-[Aib]-[ξF]-NHNH2) | > 200 | > 200 |  |
| CCCc1cc(=O)oc2c3c(c4c(c12)OC(C)(C)[C@@H](OC(=O)c1ccc(Br)cc1)[C@H]4OC(=O)c1ccc(Br)cc1)O[C@@H](C)[C@H](C)[C@@H]3OC(=O)c1ccc(Br)cc1 | > 200 | > 200 |  |
| COc1ccc(NC(=O)C(=O)Cc2nc3ccc(C(=O)c4ccccc4)cc3[nH]c2=O)c([N+](=O)[O-])c1 | > 195 | 51.3 |  |
| CC(=O)Nc1ccc(/C=N/Nc2nnc(N/N=C/c3ccc(NC(C)=O)cc3)c3ccccc23)cc1 | > 200 | 7.59 |  |
| COc1cc2c3c(ccc2cc1O)-c1cc(OC)c(OC)cc1C[N+]3(C)C | > 4.47 | > 4.47 |  |

| SMILES | EC50 [µM] | IC50 [µM] | outcome |
| --- | --- | --- | --- |
| O=C1OC(c2ccc(Cl)cc2)(c2ccc(Cl)cc2)c2c1ccc1ccccc21 |  |  | inactive |
| O=C1CSC(c2c[nH]c3ccccc23)N1c1ccc(Cl)cc1Cl (centres undefined) | > 257 | 56.2 |  |
| CCN1C[C@]2(COC)CCC(O)C34[C@@H]5C[C@@H]6C(O)[C@@H]5[C@](O)(C[C@@H]6OC)[C@@](O)([C@H]13)[C@@H](OC)[C@@H]42 (some centres undefined) |  |  | inactive |
| Cc1ncc([N+](=O)[O-])n1CCn1ccnc1[N+](=O)[O-] | > 200 | > 200 |  |
| CC1C(c2ccccc2O)c2cc3c(cc2OC1N1CCOCC1)OCO3 (centres undefined) | > 200 | 42.7 |  |
| c1cc2[nH]snc2c2cncc12 | > 200 | 11.2 |  |
| Cc1ccc(C(=O)Nc2ccc(CP(=O)(O)O)cc2CP(=O)(O)O)cc1NC(=O)c1cccc(N)c1 | > 200 | > 200 |  |
| CC1(C)OC2=C(CC1Br)C(=O)C(=O)c1ccccc12 (centres undefined) | > 2 | 1.26 |  |
| CN1C(=O)Cn2c(nn(Cc3ccccc3)c(=O)c2=O)-c2cc(Cl)ccc21 | 42.7 | 67.6 |  |
| O=C(CCl)N1CCN(c2ccccc2)CC1 | > 1050 | 1.2 |  |
| CC(OC1C(N)C(O)OC(CO)C1O)C(=O)O (centres undefined) |  |  | inactive |
| Cc1nc(N)nc(N)c1N1CCN(c2ccc(S(=O)(=O)N(Cc3ccccc3)Cc3ccccc3)cc2)CC1 | 0.0501 | 0.132 |  |
| Cc1cc(=O)oc(C)c1C(=O)O | > 200 | > 200 |  |
| CC(/C(=N\Nc1ccccc1)c1ccc(O)cc1)C1C(=O)Oc2ccccc21 (centres undefined) |  |  | inactive |
| CC1(O)C=CC(=O)C=C1 | > 2000 | 3.47 |  |
| NCCc1ccc(O)c(O)c1 | > 200 | 132 |  |
| Nc1ccc(/C=C/c2ccc3cccnc3c2)cc1 | 0.0631 | > 200 |  |
| O=C1NC2C(=CC(O)C(O)C2O)c2cc3c(cc21)OCO3 (centres undefined) | > 8.51 | 0.174 |  |
| N#Cc1c(N=C2CCCCC2)c(C(=O)Nc2ccccc2)n2c1CCC2 | > 100 | > 100 |  |
| O=[N+]([O-])c1ccccc1CS(=O)(=O)c1ccccc1 |  |  | inactive |
| C1CN(/N=N/N2CCOCC2)CCO1 | > 200 | > 200 |  |

| SMILES | EC50 [µM] | IC50 [µM] | outcome |
| --- | --- | --- | --- |
| COc1cc(C2(C)SCCCS2)c(I)c(OC)c1OC | > 234 | 6.17 |  |
| COc1cccc(C(=O)N2CCc3ccccc32)c1OC |  |  | inactive |
| CCCCCCCCCCCCCCCCOP(=O)(O)OCCC=C(c1cc(Cl)c(O)c(C(=O)O)c1)c1cc(Cl)c(O)c(C(=O)O)c1 | > 145 | 93.3 |  |
| Cc1cc(-c2ccc(N=Nc3ccc4c(S(=O)(=O)[O-])cc(S(=O)(=O)[O-])c(N)c4c3O)c(C)c2)ccc1N=Nc1ccc2c(S(=O)(=O)[O-])cc(S(=O)(=O)[O-])c(N)c2c1O.[Ga] | 1.12 | 38.9 |  |
| S=c1sc2c(Cl)nc(Cl)nc2n1-c1ccccc1 | > 31.6 | > 31.6 |  |
| COC(=O)C1=CN=C(C(=O)OC)NN1 | > 1260 | 537 |  |
| CC(C)(CO)N1C(=O)c2ccccc2C1(O)c1ccc(Cl)cc1 (centres undefined) | > 200 | 91.2 |  |
| CCOC1(c2ccccc2)OC(=O)c2ccccc21 (centres undefined) |  |  | inactive |
| CC(=O)OCC1OC(n2c(-c3ccc(N)cc3)cc(-c3ccco3)c(C#N)c2=O)C(OC(C)=O)C(OC(C)=O)C1OC(C)=O (centres undefined) | > 11.7 | > 11.7 |  |
| CCN(CC)CCCNCc1cc(Cl)c2cccnc2c1O | > 200 | 9.77 |  |
| Cc1c2ccccc2nc(CSc2n[nH]c(=S)s2)[n+]1[O-] | > 200 | > 200 |  |
| Cc1c2ccc(Cl)cc2nc2ccc(OCCCCCCNC(=O)CCCN=C(N)N)cc12 | > 50.1 | 22.9 |  |
| COC(=O)c1cc(OC)c(OC)c(OC)c1-c1cc2c(cc1C=O)OCO2 | > 132 | 120 |  |
| CC(C)CCN(CCC(C)C)CC(=O)Nc1ccc(S(=O)(=O)c2ccc(NC(=O)CN(CCC(C)C)CCC(C)C)cc2)cc1 | > 100 | 1.62 |  |
| COc1cc(C)cc2c1c(=O)c1ccccc1n2C | > 200 | 38.9 |  |
| COc1ccc(C(=CCC[C@H]2CC[C@@]3(C)[C@@H](CC[C@@H]4[C@@H]3CC[C@]3(C)[C@@H](C(C)CCCC(C)C)CC[C@@H]43)C2)c2ccc(OC)c(C(=O)O)c2)cc1C(=O)O (some centres undefined) | > 200 | > 200 |  |
| Cc1[nH]c(-c2ccccc2)c(O)c1C(=O)OC1CC(C)CCC1C(C)C (centres undefined) | > 200 | 23.4 |  |
| CC(C)(CCCCC(C)(C)NC(=O)Nc1ccc(Cl)c(Cl)c1)NC(=O)Nc1ccc(Cl)c(Cl)c1 | > 200 | 8.91 |  |
| COc1ccc(Cc2nnc(C)c3c(C)[nH]nc23)cc1 | > 525 | 33.9 |  |
| COc1ccc(-c2c(C#N)c(NC(=S)NC(=O)c3ccccc3)nc3c2CCCC3)cc1OC | > 200 | 115 |  |
